Measured values: article PMC7144376, “Antiviral Effects of Novel 2-Benzoxyl-Phenylpyridine Derivatives” (Molecules, 2020)

Columns and labels:
[1] = Cytotoxicity on uninfected Hep-2 cells (MTT, 48 h); type: cell-based; settings: human, read-out: CC50 (reduce cell viability by 50%), CVB3 host cells
Method: Human laryngeal carcinoma cells (Hep-2) and human cervical carcinoma cells (HeLa) were maintained in DMEM (Gibco) supplemented with 10% fetal bovine serum (FBS; Gibco), 100 U/mL penicillin and streptomycin, and 2 mM L-glutamine.
The antiviral activities of compounds against CVB3 and ADV7 were determined by measuring their inhibition of virus-induced CPEs in acutely infected Hep-2 and HeLa cells, respectively. Confluent cell monolayers in 96-well plates were infected with 100 TCID50 of CVB3 or ADV7 for 1.5 h at 37 °C, inocula were aspirated, and the cells then were incubated with various concentrations of compounds at 37 °C, 5% CO2, for 48 h. CPEs were observed by microscopy and the viability of cells was determined using MTT assays. The concentrations of test compounds required to achieve 50% protection from virus-induced cytopathogenicity (EC50 values) were determined. Adverse effects of tested compounds on host cells were also assessed using the MTT method after exposing uninfected cells to various concentrations of test compounds for 48 h at 37 °C. The CC50 values of compounds were calculated using SPSS software and selectivity indices were the ratio of CC50:EC50. Each experiment was performed in triplicate and at least three times, independently.

CVB3 [2] = assay: CVB3 progeny virus yield in Hep-2 cells (TCID50 titration); type: cell-based, Coxsackievirus B3; settings: 36 h, 120 μM W-9, 160 μM W-13, 160 μM W-15, 160 μM ribavirin
Method: (§1) Based on their antiviral activities and therapeutic selectivity indices, the effects on virus progeny yields of compounds W9, W13, and W15 were further investigated, using ribavirin as a positive control drug. To this end, confluent monolayers of Hep-2 or HeLa cells in 96-well plates were infected with 100 × median tissue culture infective dose (TCID50) of CVB3 or ADV7, then treated with 120 μM W-9, 160 μM W-13, 160 μM W-15, or 160 μM ribavirin. After 36 h, culture media and cell lysates were collected, following freeze-thaw cycles, and then subjected to virus titration.
(§2) Figure 2 The effects of W9, W13, and W15 on progeny virus production. Hep-2 cells infected with 100 TCID50 of CVB3 (a), or HeLa cells infected with 100 TCID50 of ADV7(b), were incubated in the absence (virus control) or presence of 120 μM W-9, 160 μM W-13, 160 μM W-15, or 160 μM ribavirin for 36 h, and the culture media and cell lysates then harvested for virus titration. Viral titers are presented as Log10 TCID50/mL. * p < 0.05; ** p < 0.01, compared with the virus control group.
(§3) CVB3 or ADV7 suspensions, serially diluted 10-fold with DMEM containing 2% FBS (DMEM maintenance medium, MM), were inoculated to Hep-2 or HeLa cells in 96-well plates. After 1.5 h incubation at 37 °C in 5% CO2, unbound virus was washed out and the MM was added to the cells. After 2 days, infected cells were monitored for CPEs and virus titers were calculated using the Reed–Muench method.

ADV7 = ADV7 progeny virus yield in HeLa cells (TCID50 titration); type: cell-based, adenovirus type 7; settings: 36 h, 120 μM W-9, 160 μM W-13, 160 μM W-15, 160 μM ribavirin
Method: as §1, §2, §3

CVB3 [3] = assay: Viral adsorption/entry analysis; type: cell-based, Coxsackievirus B3; settings: Hep-2 cells, CVB3 10^6 TCID50, 2 h adsorption; 120 μM W-9, 160 μM W-13, W-15, ribavirin
Method: (§4) Figure 3 Analysis of the modes of action of W9, W13, and W15 against CVB3. (a) Analysis of effective stage. The antiviral effects of test compounds against CVB3 were detected by measuring cell viability after 48 h of infection when cells were treated with W9, W13, or W15 before, simultaneously, or after inoculation with CVB3 (100 TCID50). (b) Analysis of the effects on CVB3 adsorption. Mock-, 120 μM W-9-, 160 μM W-13-, 160 μM W-15-, or 160 μM ribavirin-treated CVB3 (10^6 TCID50) was inoculated onto Hep-2 cells and adsorbed for 2 h. Infected cells were then harvested and subjected to virus titration, using the TCID50 method. (c) The effects of test compounds on CVB3 release from Hep-2 cells. Hep-2 cells infected with 100 TCID50 of CVB3 were incubated with test compounds for 12 h, then cells and culture supernatants (intra- and extracellular) analyzed for virus yield, separately or together. Mock, no infection; VC, virus control. Values represent the means ± SDs of three independent experiments. * p < 0.05; ** p < 0.01, compared with the virus control group.
To this end, Hep-2 cells were mock-treated or inoculated with CVB3 (10^6 TCID50) treated with 120 μM W-9, 160 μM W-13, 160 μM W-15, or 160 μM ribavirin, and adsorbed for 2 h. Infected cells were then harvested and subjected to virus titration, using the TCID50 method.
Cells were infected with CVB3 (10^6 TCID50) containing 120 μM W-9, 160 μM W-13, 160 μM W-15, or 160 μM ribavirin, after 2 h adsorption at 37 °C, inocula were discarded, and the cells were washed three times with phosphate buffered saline (PBS), harvested, following three freeze-thaw cycles, and subjected to virus titration. Cells infected with CVB3 in the absence of test compounds were used as untreated virus-infected controls.

CVB3 [4] = assay: Analysis of effective stage (prevention, mixture, treatment modes); type: cell-based, Coxsackievirus B3; settings: Hep-2 cells, cell viability after 48 h; for inhibition of CVB3, compound added just before or during infection: prevention and mixture modes; for inhibitory effect against CVB3, compound added post infection: treatment mode
Method: The mechanisms by which W9, W13, and W15 inhibit CVB3 infection were further investigated by three different approaches, using ribavirin as a positive control. Antiviral effects against CVB3 were detected by measuring cell viability after 48 h of infection when cells were treated with compounds W9, W13, and W15 before, simultaneously, or after inoculation with CVB3 (100 TCID50).
as §4
To identify the step in the life cycle of CVB3 that was affected by the compounds, various concentrations of W9, W13, and W15 were added to Hep-2 cells, and the following three treatment procedures conducted: (i) To evaluate preventive effects (prevention mode of action), various concentrations of compounds were added to cells for 2 h at 37 °C, followed by washing with MM before virus infection; (ii) To analyze for inhibition of adsorption (mixture mode of action), a mixture of compound and virus was added to cells for 2 h at 37 °C, followed by washing with MM; (iii) To assess therapeutic effects (treatment mode of action), cells were first infected for 2 h at 37 °C, followed by washing with MM, addition of the compounds, and incubation for the duration of the experiment. For all procedures, cell viability was estimated after 48 h of infection, using MTT assays.

SMILES	CC50 at 48 h [1]	reduction in CVB3 virus progeny titer relative to untreated control (CVB3 [2])	reduction in ADV7 virus progeny titer relative to untreated control (ADV7)	virus titer during virus attachment (adsorption/entry) (CVB3 [3])	inhibition of CVB3, compound added just before or during infection (CVB3 [4])	inhibitory effect against CVB3, compound added post infection (CVB3 [4])
NC(=O)c1ncn([C@@H]2O[C@H](CO)[C@@H](O)[C@H]2O)n1 [Ribavirin, reference compound]	836 µM	approximately 2.0 log	~1.7 log	no significant decrease in virus titer	–	–
O=C(Oc1cc(Cl)ccc1-c1ccccn1)c1ccccc1 [W9]	148 ± 11.6 µM	approximately 2.5 log	approximately 2.0 log	no significant decrease in virus titer	no significant inhibition	most powerful inhibitory effects
Cc1ccc(OC(=O)C(C)(C)C)c(-c2ccccn2)c1 [W13]	424 ± 26.8 µM	approximately 2.5 log	approximately 2.0 log	no significant decrease in virus titer	no significant inhibition	most powerful inhibitory effects
CC(=O)Oc1ccc(-c2ccccn2)c(OC(=O)c2ccccc2)c1 [W15]	451 ± 32.4 µM	approximately 2.5 log	approximately 2.0 log	no significant decrease in virus titer	no significant inhibition	most powerful inhibitory effects
